Test results as given in PMC3682544, “Structural Analysis of Collagen Type I Interactions with Human Fibronectin Reveals a Cooperative Binding Mode” (The Journal of Biological Chemistry, 2013).
Like-named read-outs stand apart in the source and are kept apart here. Square brackets hold non-standard residues; d marks the D form. Ends that are not written are not given here. Peptide text beside a SMILES is read from it. * marks the point of attachment. 5FAM = O=C1OC2(c3ccc(O)cc3Oc3cc(O)ccc32)c2ccc(C(=O)*)cc21; Hyp = O=C(O)[C@@H]1C[C@@H](O)CN1

Key:
[1] = molecular target: T1, GBD (gelatin-binding domain, ^6FnI^1–2FnII^7–9FnI, residues 305–608) of human FN (Homo sapiens, UniProt P02751, H307D/N528Q/R534K); experiment: Fluorescence polarization titrations of 5-carboxyfluorescein-labelled collagen peptides with GBD; details: FA: fluorescence polarization, 75 nM N-terminal 5-carboxyfluorescein peptide, increasing protein, PBS, 25 °C, single binding model
T1 construct: FN fragments corresponding to residues 305–608 (GBD); made in house
Source text: (§1) FN fragments corresponding to residues 305–608 (GBD), 305–515 (^6FnI^1–2FnII^7FnI), and 516–608 (^8–9FnI) and bearing single amino acid substitutions to improve solubility and protein yields (H307D, N528Q, and R534K) were produced as described previously ([7], [26], [32]). Synthetic collagen peptides were purchased from GL Biochem (Shanghai, China); their sequences are provided in Table 1, and unless fluorescently tagged, they included a C-terminal tyrosine residue for UV determination of peptide concentration. Fluorescent peptides had 5-carboxyfluorescein attached to the N-terminal amine group.
Fluorescence polarization measurements were performed at 25 °C in PBS using SpectraMax M5 (Molecular Devices) and PHERAstar FS (BMG Labtech) fluorometers. […] Differences in fluorescence polarization were fit using a single binding model in the program Origin (OriginLab) ([33]).

[2] = molecular target: T2, ^8–9FnI (FN residues 516–608) (Homo sapiens, UniProt P02751, N528Q/R534K); experiment: ^1H-^15N heteronuclear single quantum correlation NMR titrations with ^8–9FnI; assay type: binding; details: NMR ^1H-^15N HSQC titration, PBS pH 7.2, 25 °C; for Kd: single binding event fit
T2 construct: and 516–608 (^8–9FnI); made in house
Source text: as §1
(§2) NMR spectrometers used superconducting magnets (Oxford Instruments) at 950- and 500-MHz proton resonance frequencies (home-built or Bruker AVANCE II consoles and room temperature or cryogenic probe heads, respectively). Spectra were recorded in PBS (20 mM Na2HPO4 (pH 7.2) and 150 mM NaCl) with 1% 4,4-dimethyl-4-silapentane-1-sulfonic acid as a calibration standard. Experiment temperatures were optimized to avoid resonance broadening due to intermediate exchange phenomena and corresponded to 25 °C (^8–9FnI) or 37 °C (^6FnI^1–2FnII^7FnI). Sequential chemical shift assignments were performed earlier ([7], [26]). Analysis of spectral perturbations upon protein interactions and determination of equilibrium parameters were performed as described ([33]).

[3] = molecular target: T3, ^6FnI^1–2FnII^7FnI (FN residues 305–515) (Homo sapiens, UniProt P02751, H307D); experiment: ^1H-^15N heteronuclear single quantum correlation NMR titrations with ^6FnI^1–2FnII^7FnI; assay type: binding; details: NMR ^1H-^15N HSQC titration, chemical shift analysis, PBS pH 7.2, 37 °C
T3 construct: 305–515 (^6FnI^1–2FnII^7FnI); made in house
Source text: as §1, §2

[4] = molecular target: T2, ^8–9FnI (FN residues 516–608); details: NMR titration; cited from earlier work
Source text: TABLE 1 KD values for collagen I peptide binding to FN fragments α1 and α2 chain numbering is taken to begin at the estimated start of the helical region. “O” in peptide sequences denotes 4-hydroxyproline. NMR, ^1H-^15N heteronuclear single quantum correlation NMR titrations; FA, fluorescence polarization titrations using N-terminal 5-carboxyfluorescein labeling. In titrations where no binding was | column: KD / ^8–9FnI || To firmly establish the elusive molecular interplay between the GBD and the most common collagen (type I), we first need to understand the exact nature of the binding site. […] At a distance of ∼1/10 (D-period 1, peptides AN and CN) or 3/4 (D-period 4, peptides BN and DN) from the N terminus of the triple hel ... || FIGURE 3. GBD-binding sites on collagen type I. A, schematic representation of the collagen type I α1 and α2 chains and the two FN-binding sites at 1/10 and 3/4 sequence distance from the collagen N terminus. ^8–9FnI-binding sites (peptides AN, BN, CN, and DN) are shown in blue, with the sequences immediately C-terminal thereof (peptides AC, BC, CC, and DC) shown in red. Dissociation constants are indicated. Highlighted in green is the only site where the two GBD subfragments, ^6FnI^1–2FnII^7FnI and ^8–9FnI, bind collagen type I cooperatively. B, amino acid sequences of peptides A–D. Conserved ...
Target sequence in this assay (P02751 516-608 N528Q/R534K): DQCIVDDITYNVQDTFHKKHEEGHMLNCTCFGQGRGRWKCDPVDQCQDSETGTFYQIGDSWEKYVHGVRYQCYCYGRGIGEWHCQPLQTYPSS

[5] = molecular target: fibronectin modules 8-9FnI, residues 516-608 (human) (UniProt P02751); experiment: NMR titration; 1H-15N HSQC of 8-9FnI, collagen peptide titrated in, PBS (20 mM Na2HPO4 pH 7.2, 150 mM NaCl), 25 °C; single binding event
[6] = molecular target: collagen type I alpha2 peptide D, G772-G820, 5-carboxyfluorescein labelled; experiment: fluorescence polarisation; 75 nM 5-carboxyfluorescein-labelled peptide, increasing concentrations of protein, 96-well plates, 25 °C, PBS; single binding model
[7] = molecular target: collagen type I alpha2 peptide C, Q72-G118, 5-carboxyfluorescein labelled; experiment: as above
[8] = molecular target: collagen type I alpha1 peptide B, G772-G820, 5-carboxyfluorescein labelled; experiment: as above
[9] = molecular target: collagen type I alpha1 peptide A, G70-G118, 5-carboxyfluorescein labelled; experiment: as above

T1 sequence (P02751 305-608 H307D/N528Q/R534K): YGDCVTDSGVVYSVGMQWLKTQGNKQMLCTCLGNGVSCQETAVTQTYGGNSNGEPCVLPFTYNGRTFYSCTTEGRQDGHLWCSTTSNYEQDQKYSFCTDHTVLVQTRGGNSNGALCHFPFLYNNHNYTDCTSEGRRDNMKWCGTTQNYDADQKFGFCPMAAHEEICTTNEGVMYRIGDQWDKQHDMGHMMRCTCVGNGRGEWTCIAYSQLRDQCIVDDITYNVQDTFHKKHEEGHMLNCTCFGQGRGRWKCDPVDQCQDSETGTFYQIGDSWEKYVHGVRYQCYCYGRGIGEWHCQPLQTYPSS
T3 sequence (P02751 305-515 H307D): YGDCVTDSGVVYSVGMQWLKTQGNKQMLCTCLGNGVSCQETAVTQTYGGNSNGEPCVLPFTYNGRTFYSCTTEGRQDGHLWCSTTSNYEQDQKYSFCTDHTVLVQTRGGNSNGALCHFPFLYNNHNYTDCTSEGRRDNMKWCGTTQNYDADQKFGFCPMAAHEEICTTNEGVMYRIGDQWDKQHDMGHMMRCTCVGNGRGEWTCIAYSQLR

Molecule: 5FAM-GPQGARGL[Hyp]GTAGL[Hyp]GMKGHRGFSGLDGAKGDAGPAGPKGE[Hyp]GS[Hyp]GENG [A]
- Kd [1]: 97.9 ± 8.2 µM

Molecule: 5FAM-GPQGIAGQRGVVGL[Hyp]GQRGERGF[Hyp]GL[Hyp]GPSGE[Hyp]GKQGPSGASGERGP[Hyp]G [B]
- Kd [1]: 15.2 ± 2 µM

Molecule: 5FAM-GPQGLLGA[Hyp]GILGL[Hyp]GSRGERGL[Hyp]GVAGAVGEPGPLGIAGP[Hyp]GARGP[Hyp]G [D]
- Kd [1]: 5.8 ± 1 µM

Molecule: 5FAM-QGARGF[Hyp]GT[Hyp]GL[Hyp]GFKGIRGHNGLDGLKGQ[Hyp]GA[Hyp]GVKGE[Hyp]GA[Hyp]GENG [C]
- Kd [1]: 25.6 ± 2.6 µM

Molecule: CSCC[C@H](NC(=O)CNC(=O)[C@@H]1C[C@@H](O)CN1C(=O)[C@H](CC(C)C)NC(=O)CNC(=O)[C@H](C)NC(=O)[C@@H](NC(=O)CNC(=O)[C@@H]1C[C@@H](O)CN1C(=O)[C@H](CC(C)C)NC(=O)CN)[C@@H](C)O)C(=O)N[C@@H](CCCCN)C(=O)NCC(=O)N[C@@H](Cc1c[nH]cn1)C(=O)N[C@@H](CCCNC(=N)N)C(=O)NCC(=O)N[C@@H](Cc1ccccc1)C(=O)N[C@@H](CO)C(=O)NCC(=O)N[C@@H](CC(C)C)C(=O)N[C@@H](CC(=O)O)C(=O)NCC(=O)N[C@@H](Cc1ccc(O)cc1)C(=O)O [AN] (H-GL[Hyp]GTAGL[Hyp]GMKGHRGFSGLDGY-OH)
- Kd [2]: 143 ± 17.3 µM

Molecule: CC(C)C[C@H](NC(=O)CNC(=O)[C@H](CO)NC(=O)[C@@H](NC(=O)CNC(=O)[C@H](CCCNC(=N)N)NC(=O)[C@H](CCC(N)=O)NC(=O)CN)C(C)C)C(=O)N1C[C@H](O)C[C@H]1C(=O)NCC(=O)N[C@@H](CCC(N)=O)C(=O)N[C@@H](CCCNC(=N)N)C(=O)NCC(=O)N[C@@H](CCC(=O)O)C(=O)N[C@@H](CCCNC(=N)N)C(=O)NCC(=O)N[C@@H](Cc1ccccc1)C(=O)N1C[C@H](O)C[C@H]1C(=O)NCC(=O)N[C@@H](CC(C)C)C(=O)N1C[C@H](O)C[C@H]1C(=O)NCC(=O)N[C@@H](Cc1ccc(O)cc1)C(=O)O [BN-S783V] (H-GQRGVSGL[Hyp]GQRGERGF[Hyp]GL[Hyp]GY-OH)
- KD ^8–9FnI (NMR interaction regime, in words) [2]: fast interaction regime
- Kd [2]: 96.5 ± 11.4 µM

Molecule: CC(C)C[C@H](NC(=O)CNC(=O)[C@H](CC(=O)O)NC(=O)[C@H](CC(C)C)NC(=O)CNC(=O)[C@H](CC(N)=O)NC(=O)[C@H](Cc1c[nH]cn1)NC(=O)CN)C(=O)N[C@@H](CCCCN)C(=O)NCC(=O)N[C@@H](CCC(N)=O)C(=O)N1C[C@H](O)C[C@H]1C(=O)NCC(=O)N[C@@H](C)C(=O)N1C[C@H](O)C[C@H]1C(=O)NCC(=O)N[C@H](C(=O)N[C@@H](CCCCN)C(=O)NCC(=O)N[C@@H](CCC(=O)O)C(=O)N1C[C@H](O)C[C@H]1C(=O)NCC(=O)N[C@@H](C)C(=O)N1C[C@H](O)C[C@H]1C(=O)NCC(=O)N[C@@H](CCC(=O)O)C(=O)N[C@@H](CC(N)=O)C(=O)NCC(=O)N[C@@H](Cc1ccc(O)cc1)C(=O)O)C(C)C [CC] (H-GHNGLDGLKGQ[Hyp]GA[Hyp]GVKGE[Hyp]GA[Hyp]GENGY-OH)
- Kd [3]: 248 ± 11.6 µM

Molecule: CC[C@H](C)[C@H](NC(=O)CNC(=O)[C@H](CCCCN)NC(=O)[C@H](Cc1ccccc1)NC(=O)CNC(=O)[C@@H]1C[C@@H](O)CN1C(=O)[C@H](CC(C)C)NC(=O)CNC(=O)[C@@H]1C[C@@H](O)CN1C(=O)[C@@H](NC(=O)CNC(=O)[C@@H]1C[C@@H](O)CN1C(=O)[C@H](Cc1ccccc1)NC(=O)CN)[C@@H](C)O)C(=O)N[C@@H](CCCNC(=N)N)C(=O)NCC(=O)N[C@@H](Cc1c[nH]cn1)C(=O)N[C@@H](CC(N)=O)C(=O)NCC(=O)N[C@@H](CC(C)C)C(=O)N[C@@H](CC(=O)O)C(=O)NCC(=O)N[C@@H](Cc1ccc(O)cc1)C(=O)O [CN] (H-GF[Hyp]GT[Hyp]GL[Hyp]GFKGIRGHNGLDGY-OH)
- Kd [2]: 2000 ± 200 µM

Molecule: BN: Synthetic collagen type I α1 peptide 775–799 with C-terminal tyrosine (GLPGQRGVVGLPGQRGERGFPGLPGY; 4-hydroxyproline at peptide positions 3, 12, 21 and 24 (printed O); its leading GLO differs from the native GIA in peptide B. The text and PDB 3)
- Kd [4]: 5 ± 1 µM

Molecule: DN: Synthetic collagen type I α2 peptide 778–799 with C-terminal tyrosine (GAPGILGLPGSRGERGLPGVAGY; 4-hydroxyproline at peptide positions 3, 9 and 18 (printed O); C-terminal Tyr added for UV quantification)
- Kd [4]: 8 ± 2 µM

Molecule: collagen type I alpha1 peptide BN with Val783 changed to serine, G778-G799 with C-terminal tyrosine
- Kd [5]: 97 µM

Molecule: gelatin-binding domain (GBD) of human fibronectin, 6FnI1-2FnII7-9FnI, residues 305-608 (from UniProt P02751 305-608) (domain or fragment)
- Kd [6]: 6 µM
- Kd [7]: 26 µM
- Kd [8]: 15 µM
- Kd [9]: 98 µM
